Measured values reported in patent US8835440B2, “Cyclic pyrimidin-4-carboxamides as CCR2 receptor antagonists for treatment of inflammation, asthma and COPD” (Boehringer Ingelheim International GmbH, priority 2008, dated 2014).

molecular target: T1, CCR2 (Homo sapiens, UniProt P41597); test: CCR2 receptor membrane binding assay ([125I]MCP-1, THP-1 cell membranes, SPA beads); conditions: @ 10 μM test compound; THP-1 membranes; read-out: CCR2 % ctrl @ 10 μM
T1 construct: Membranes were prepared from THP-1 cells; endogenous in cells; host or cells: THP-1 cells (membrane preparation)
T1 sequence (P41597 1-360 isoform P41597-2): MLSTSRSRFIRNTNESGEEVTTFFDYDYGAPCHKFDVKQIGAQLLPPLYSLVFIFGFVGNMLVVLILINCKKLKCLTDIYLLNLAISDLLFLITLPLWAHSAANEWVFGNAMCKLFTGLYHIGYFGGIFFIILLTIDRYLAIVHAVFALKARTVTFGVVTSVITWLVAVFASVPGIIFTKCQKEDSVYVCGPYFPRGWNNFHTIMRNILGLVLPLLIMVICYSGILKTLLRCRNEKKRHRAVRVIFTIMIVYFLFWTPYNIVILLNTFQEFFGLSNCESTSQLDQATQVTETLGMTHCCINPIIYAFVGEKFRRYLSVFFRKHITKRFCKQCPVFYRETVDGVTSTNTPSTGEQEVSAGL
How it was run: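 Human THP-1 monocytic cell membranes, pre-coupled to WGA-PVT SPA beads, were incubated with compound and [125I]MCP-1 (ca. 25000 cpm) in 25 mM HEPES pH 7.2, 5 mM MgCl2, 0.5 mM CaCl2, 0.2% BSA, at 1% DMSO final. Bound radioactivity was counted after 8 h, and Ki was obtained by iterative mass-action fitting.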

SMILES | remaining activity at 10 µM
Cc1c(NCc2ccc(C(C)(C)C)cc2)ncnc1C(=O)N1CCCC(N2CCOCC2)CC1 (centres unmarked) [Example 162] | 43%
Cc1c(NCc2ccc(C(C)(C)C)cc2)ncnc1C(=O)N1CCCC(N2CCCC2)CC1 (centres unmarked) [Example 163] | 32%
Cc1c(NCCc2ccc(Cl)c(Cl)c2)ncnc1C(=O)N1CCC(N2CCC(F)(F)CC2)CC1 [Example 164] | 15%
Cc1c(NCCc2ccc(Cl)c(Cl)c2)ncnc1C(=O)N1CCC(N2CC[C@@H](O)C2)CC1 [Example 165] | 15%
Cc1c(NCCc2ccc(Cl)c(Cl)c2)ncnc1C(=O)N1CCC(N2CC[C@H](O)C2)CC1 [Example 166] | 16%
Cc1c(NCCc2ccc(Cl)c(Cl)c2)ncnc1C(=O)N1CCC(N2CCC(F)CC2)CC1 [Example 167] | 16%
Cc1c(NCCc2ccc(Cl)c(Cl)c2)ncnc1C(=O)N1CCC(N2CCC(NS(C)(=O)=O)CC2)CC1 [Example 168] | 9%
Cc1c(NCCc2ccc(Cl)c(Cl)c2)ncnc1C(=O)N1CCC(N2CCC[C@H](NS(C)(=O)=O)C2)CC1 [Example 169] | 54%
Cc1c(NCCc2ccc(Cl)c(Cl)c2)ncnc1C(=O)N1CCC(N2CCC(NC(=O)C(C)C)CC2)CC1 [Example 170] | 31%
CC(=O)NC1CCN(C2CCN(C(=O)c3ncnc(NCCc4ccc(Cl)c(Cl)c4)c3C)CC2)CC1 [Example 171] | 16%
Cc1c(NCCc2ccc(Cl)c(Cl)c2)ncnc1C(=O)N1CCC(N2CCC(C(N)=O)CC2)CC1 [Example 172] | 28%
CNC(=O)C1CCN(C2CCN(C(=O)c3ncnc(NCCc4ccc(Cl)c(Cl)c4)c3C)CC2)CC1 [Example 173] | 6%
Cc1c(NCCc2ccc(Cl)c(Cl)c2)ncnc1C(=O)N1CCC(N2CCC[C@@H](NS(C)(=O)=O)C2)CC1 [Example 174] | 53%
Cc1c(NCCc2ccc(Cl)c(Cl)c2)ncnc1C(=O)N1CCC(N2CCC[C@H](C(N)=O)C2)CC1 [Example 175] | 14%
CNC(=O)[C@H]1CCCN(C2CCN(C(=O)c3ncnc(NCCc4ccc(Cl)c(Cl)c4)c3C)CC2)C1 [Example 176] | 31%
Cc1c(NCCc2ccc(Cl)c(Cl)c2)ncnc1C(=O)N1CCC(N2CCC[C@H](C(=O)N(C)C)C2)CC1 [Example 177] | 43%
CCN(C1CCN(C2CCN(C(=O)c3ncnc(NCCc4ccc(Cl)c(Cl)c4)c3C)CC2)CC1)S(C)(=O)=O [Example 178] | 0%
Cc1c(NCCc2ccc(Cl)c(Cl)c2)ncnc1C(=O)N1CCC(N2CCC[C@H](C(=O)O)C2)CC1 [Example 179] | 42%
Cc1c(NCc2ccc(Cl)c(Cl)c2)ncnc1C(=O)N1CCC(N(C)CC2(C)COC2)CC1 [Example 180] | 60%

SMILES | remaining activity at 10 µM
COCCN(C)C1CCN(C(=O)c2ncnc(NCc3ccc(Cl)c(Cl)c3)c2C)CC1 [Example 181] | 58%
Cc1c(NCc2ccc(Cl)c(Cl)c2)ncnc1C(=O)N1CCC(N(C)CC#N)CC1 [Example 182] | 53%
Cc1c(NCc2ccc(Cl)c(Cl)c2)ncnc1C(=O)N1CCC(N2Cc3ccccc3C2)CC1 [Example 183] | 45%
Cc1c(NCc2ccc(Cl)c(Cl)c2)ncnc1C(=O)N1CCC(N2CCC(C(F)(F)F)CC2)CC1 [Example 184] | 30%
CO[C@H]1CN(C2CCN(C(=O)c3ncnc(NCc4ccc(Cl)c(Cl)c4)c3C)CC2)CC[C@H]1NS(C)(=O)=O [Example 185] | 53%
CNC(=O)C1CCN(C2CCN(C(=O)c3ncnc(NCc4ccc(Cl)c(Cl)c4)c3C)CC2)CC1 [Example 186] | 8%
Cc1c(NCc2ccc(Cl)c(Cl)c2)ncnc1C(=O)N1CCC(N2CCC(NC(N)=O)CC2)CC1 [Example 187] | 15%
Cc1c(NCc2ccc(Cl)c(Cl)c2)ncnc1C(=O)N1CCC(N2CCC3(CC2)CCN(S(C)(=O)=O)C3)CC1 [Example 188] | 53%
Cc1c(NCc2ccc(Cl)c(Cl)c2)ncnc1C(=O)N1CCC(N2CCC(N3CCCS3(=O)=O)CC2)CC1 [Example 189] | 13%
Cc1c(NCc2ccc(Cl)c(Cl)c2)ncnc1C(=O)N1CCC(N2CCC3(CCNC3=O)CC2)CC1 [Example 190] | 27%
CO[C@@H]1CN(C2CCN(C(=O)c3ncnc(NCc4ccc(Cl)c(Cl)c4)c3C)CC2)CC[C@H]1NS(C)(=O)=O [Example 191] | 20%
Cc1c(NCc2ccc(Cl)c(Cl)c2)ncnc1C(=O)N1CCC(N2CCC(N3CCCC3=O)CC2)CC1 [Example 192] | 37%
CNC(=O)C1CN(C2CCN(C(=O)c3ncnc(NCc4ccc(Cl)c(Cl)c4)c3C)CC2)C1 [Example 193] | 35%
CC(=O)N(C)C1CCN(C2CCN(C(=O)c3ncnc(NCc4ccc(Cl)c(Cl)c4)c3C)CC2)CC1 [Example 194] | 25%
CCS(=O)(=O)NC1CCN(C2CCN(C(=O)c3ncnc(NCc4ccc(Cl)c(Cl)c4)c3C)CC2)CC1 [Example 195] | 14%
Cc1c(NCc2ccc(C(C)(C)C)cc2)ncnc1C(=O)N1CCC(N2CCC(S(=O)(=O)N(C)C)CC2)CC1 [Example 196] | 19%
Cc1c(NCc2ccc(Cl)c(Cl)c2)ncnc1C(=O)N1CCC(N2CCC(NS(=O)(=O)C(C)C)CC2)CC1 [Example 197] | 4%
CCOC1CCN(C2CCN(C(=O)c3ncnc(NCc4ccc(C(C)(C)C)cc4)c3C)CC2)CC1 [Example 198] | 1%

same assay, conditions: dissociation constant hKi; [125I]MCP-1 binding to THP-1 membranes

SMILES | Ki
Cc1c(NCc2ccc(C(C)(C)C)cc2)ncnc1C(=O)N1CCCC(N2CCOCC2)CC1 (centres unmarked) [Example 162] | 3800 nM
Cc1c(NCc2ccc(C(C)(C)C)cc2)ncnc1C(=O)N1CCCC(N2CCCC2)CC1 (centres unmarked) [Example 163] | 1560 nM
Cc1c(NCCc2ccc(Cl)c(Cl)c2)ncnc1C(=O)N1CCC(N2CCC(F)(F)CC2)CC1 [Example 164] | 353 nM
Cc1c(NCCc2ccc(Cl)c(Cl)c2)ncnc1C(=O)N1CCC(N2CC[C@@H](O)C2)CC1 [Example 165] | 222 nM
Cc1c(NCCc2ccc(Cl)c(Cl)c2)ncnc1C(=O)N1CCC(N2CC[C@H](O)C2)CC1 [Example 166] | 227 nM
Cc1c(NCCc2ccc(Cl)c(Cl)c2)ncnc1C(=O)N1CCC(N2CCC(F)CC2)CC1 [Example 167] | 246 nM
Cc1c(NCCc2ccc(Cl)c(Cl)c2)ncnc1C(=O)N1CCC(N2CCC(NS(C)(=O)=O)CC2)CC1 [Example 168] | 51 nM
Cc1c(NCCc2ccc(Cl)c(Cl)c2)ncnc1C(=O)N1CCC(N2CCC[C@H](NS(C)(=O)=O)C2)CC1 [Example 169] | 2290 nM
Cc1c(NCCc2ccc(Cl)c(Cl)c2)ncnc1C(=O)N1CCC(N2CCC(NC(=O)C(C)C)CC2)CC1 [Example 170] | 705 nM
CC(=O)NC1CCN(C2CCN(C(=O)c3ncnc(NCCc4ccc(Cl)c(Cl)c4)c3C)CC2)CC1 [Example 171] | 356 nM
Cc1c(NCCc2ccc(Cl)c(Cl)c2)ncnc1C(=O)N1CCC(N2CCC(C(N)=O)CC2)CC1 [Example 172] | 736 nM
CNC(=O)C1CCN(C2CCN(C(=O)c3ncnc(NCCc4ccc(Cl)c(Cl)c4)c3C)CC2)CC1 [Example 173] | 89 nM
Cc1c(NCCc2ccc(Cl)c(Cl)c2)ncnc1C(=O)N1CCC(N2CCC[C@@H](NS(C)(=O)=O)C2)CC1 [Example 174] | 2720 nM
Cc1c(NCCc2ccc(Cl)c(Cl)c2)ncnc1C(=O)N1CCC(N2CCC[C@H](C(N)=O)C2)CC1 [Example 175] | 434 nM
CNC(=O)[C@H]1CCCN(C2CCN(C(=O)c3ncnc(NCCc4ccc(Cl)c(Cl)c4)c3C)CC2)C1 [Example 176] | 648 nM
Cc1c(NCCc2ccc(Cl)c(Cl)c2)ncnc1C(=O)N1CCC(N2CCC[C@H](C(=O)N(C)C)C2)CC1 [Example 177] | 1250 nM
CCN(C1CCN(C2CCN(C(=O)c3ncnc(NCCc4ccc(Cl)c(Cl)c4)c3C)CC2)CC1)S(C)(=O)=O [Example 178] | 27 nM
Cc1c(NCCc2ccc(Cl)c(Cl)c2)ncnc1C(=O)N1CCC(N2CCC[C@H](C(=O)O)C2)CC1 [Example 179] | 1640 nM
Cc1c(NCc2ccc(Cl)c(Cl)c2)ncnc1C(=O)N1CCC(N(C)CC2(C)COC2)CC1 [Example 180] | 4810 nM

SMILES | Ki
COCCN(C)C1CCN(C(=O)c2ncnc(NCc3ccc(Cl)c(Cl)c3)c2C)CC1 [Example 181] | 3610 nM
Cc1c(NCc2ccc(Cl)c(Cl)c2)ncnc1C(=O)N1CCC(N(C)CC#N)CC1 [Example 182] | 2990 nM
Cc1c(NCc2ccc(Cl)c(Cl)c2)ncnc1C(=O)N1CCC(N2Cc3ccccc3C2)CC1 [Example 183] | 426 nM
Cc1c(NCc2ccc(Cl)c(Cl)c2)ncnc1C(=O)N1CCC(N2CCC(C(F)(F)F)CC2)CC1 [Example 184] | 908 nM
CO[C@H]1CN(C2CCN(C(=O)c3ncnc(NCc4ccc(Cl)c(Cl)c4)c3C)CC2)CC[C@H]1NS(C)(=O)=O [Example 185] | 4210 nM
CNC(=O)C1CCN(C2CCN(C(=O)c3ncnc(NCc4ccc(Cl)c(Cl)c4)c3C)CC2)CC1 [Example 186] | 78 nM
Cc1c(NCc2ccc(Cl)c(Cl)c2)ncnc1C(=O)N1CCC(N2CCC(NC(N)=O)CC2)CC1 [Example 187] | 256 nM
Cc1c(NCc2ccc(Cl)c(Cl)c2)ncnc1C(=O)N1CCC(N2CCC3(CC2)CCN(S(C)(=O)=O)C3)CC1 [Example 188] | 3930 nM
Cc1c(NCc2ccc(Cl)c(Cl)c2)ncnc1C(=O)N1CCC(N2CCC(N3CCCS3(=O)=O)CC2)CC1 [Example 189] | 170 nM
Cc1c(NCc2ccc(Cl)c(Cl)c2)ncnc1C(=O)N1CCC(N2CCC3(CCNC3=O)CC2)CC1 [Example 190] | 783 nM
CO[C@@H]1CN(C2CCN(C(=O)c3ncnc(NCc4ccc(Cl)c(Cl)c4)c3C)CC2)CC[C@H]1NS(C)(=O)=O [Example 191] | 519 nM
Cc1c(NCc2ccc(Cl)c(Cl)c2)ncnc1C(=O)N1CCC(N2CCC(N3CCCC3=O)CC2)CC1 [Example 192] | 1450 nM
CNC(=O)C1CN(C2CCN(C(=O)c3ncnc(NCc4ccc(Cl)c(Cl)c4)c3C)CC2)C1 [Example 193] | 1540 nM
CC(=O)N(C)C1CCN(C2CCN(C(=O)c3ncnc(NCc4ccc(Cl)c(Cl)c4)c3C)CC2)CC1 [Example 194] | 491 nM
CCS(=O)(=O)NC1CCN(C2CCN(C(=O)c3ncnc(NCc4ccc(Cl)c(Cl)c4)c3C)CC2)CC1 [Example 195] | 141 nM
Cc1c(NCc2ccc(C(C)(C)C)cc2)ncnc1C(=O)N1CCC(N2CCC(S(=O)(=O)N(C)C)CC2)CC1 [Example 196] | 666 nM
Cc1c(NCc2ccc(Cl)c(Cl)c2)ncnc1C(=O)N1CCC(N2CCC(NS(=O)(=O)C(C)C)CC2)CC1 [Example 197] | 33 nM
CCOC1CCN(C2CCN(C(=O)c3ncnc(NCc4ccc(C(C)(C)C)cc4)c3C)CC2)CC1 [Example 198] | 58 nM
